Reference: patent US11589575B2, “Injectable preserving medium for preserving cells from placental blood, from bone marrow and from peripheral blood” (ETABLISSEMENT FRANCAIS DU SANG, priority 2015, dated 2023)
“Also recorded” adds a separate entry of the source.

System: placental blood CD34+ cells amplified ex vivo
Experiment: Preservation at +4° C. of ex vivo amplified placental blood CD34+ cells (TNC viability and clonogenic CFC/CFU yield)
Assay type: cell-based, human
Details: for preserving of the functionality (clonogenicity) of amplified cells: cells stored at +4° C.
Protocol: The cells, after ex vivo expansion, are more fragile than the original CD34+ cells, and the maintaining thereof is most critical at +4° C. (Duchez et al, 2013, supra).
Throughout all the studies leading to the formulation of the biological preserving medium, the assays were conducted on placental blood CD34+ cells derived from a bank with storage at −196° C. Each assay was performed on one 1 or more samples.
The placental blood CD34+ cells were isolated with an immunomagnetic system, then frozen and banked at −196° C.
After thawing, the placental blood CD34+ cells (20000/ml) were placed in culture in HP01 medium in the presence of SCF (Stem Cell Factor) 100 ng/ml, Flt3 (FMS-like tyrosine kinase-3) 100 ng/ml, G-CSF (Granulocyte Colony Stimulating Factor) 10 ng/ml, and thrombopoietin (TPO) 20 ng/ml at 37° C., 5% CO2 and 85% humidity. At mid-culture, the addition was made of HP01 culture medium with the cytokines (1/5 dilution) and culture continued up to 9 to 12 days (generally 10 days).
After culture, 2.5 ml of cell suspension were transferred to 2.5 ml gas-impermeable polypropylene tubes and centrifuged at 430 g for 10 minutes at 18° C. The supernatant was fully removed (with about 50 μl of supernatant remaining on the cell residue). Then, 2.45 ml of preserving medium to be assayed (at ambient temperature) were added to the tube and the tube sealed with the stopper; the cells being replaced in suspension with successive upturning movements. The samples were left at ambient temperature for 1 to 3 hours. Finally, the tubes were placed flat at +4° C. for times generally of 48 h to 72 h. Assays were also conducted in gas-permeable PVC pouches for comparative studies and in gas-impermeable EVA pouches.
Analyses were performed on the amplified cells: counting and viability of TNCs (Total Nucleated Cells), clonogenic assays, sometimes with counting and viability of CD34+ cells. After the period at +4° C. for the defined times (48 h and 72 h), the cell samples were assayed: counting and viability of TNCs and clonogenic assays (at times also counting and viability of CD34+ cells).
The quantity of viable total nucleated cells remaining after storage at 4° C. was compared with the quantity of viable total nucleated cells at the end of culture, to obtain a recovery yield of viable cells. Similarly, the yield of CFCs (Colony Forming Cells) was calculated. The values obtained were used to evaluate the advantage of one or more compounds in the formulation and to identify the optimal concentration of these compounds. The values were compared with those obtained with the HP02 preserving medium (Duchez et al, 2013, supra).

Structure (SMILES)	preserving of the functionality (clonogenicity) of amplified cells	action throughout the assays on preservation of amplified cells (readout not further specified) (stored at +4° C.)
CC1=C(/C=C/C(C)=C/C=C/C(C)=C/CO)C(C)(C)CCC1 [vitamin A, Retinol]	lesser action	
O=C1O[C@H]([C@@H](O)CO)C(O)=C1O [vitamin C, Ascorbic acid]	lesser action	
Cc1c(C)c2c(c(C)c1O)CC[C@@](C)(CCC[C@H](C)CCC[C@H](C)CCCC(C)C)O2 [vitamin E, Alpha-tocopherol]	the greatest action; also recorded: the most important action	effect close to or identical to the effect of Cernevit®
